Measured values from patent US12692238B2, “Substituted pyridazinone herbicides” (FMC CORPORATION, priority 2020, dated 2026).

Assays:
Format in all cases: in vivo
[1] = tested on: barnyardgrass (Echinochloa crus-galli); assay: Test A preemergence, barnyardgrass; conditions: 10 days
Procedure, shortened: (§1)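 Herbicidal response was scored visually after ten greenhouse days, comparing treated pots with untreated ones on a 0–100 control scale. Preemergence application was a directed soil spray; postemergence plants were treated at 2 to 10 cm height.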

[2] = tested on: foxtail, green (green foxtail, Setaria viridis); assay: Test A preemergence, foxtail, green; conditions: 0 to 100 scale, 10 days
From the text: (§2) Seeds of plant species selected from barnyardgrass (Echinochloa crus-galli), blackgrass (Alopecurus myosuroides), corn (Zea mays), foxtail, giant (giant foxtail, Setaria faberi), foxtail, green (green foxtail, Setaria viridis), goosegrass (Eleusine indica), kochia (Bassia scoparia), oat, wild (wild oat, Avena fatua), palmer amaranth (pigweed, palmer, Amaranthus palmeri), redroot pigweed (Amaranthus retroflexus), ragweed (common ragweed, Ambrosia artemisiifolia), ryegrass, Italian (Italian ryegrass, Lolium multiflorum), and soybean (Glycine max) were planted into a blend of loam soil and sand and treated preemergence with a directed soil spray using test chemicals formulated in a non-phytotoxic solvent mixture which included a surfactant.
(§3) At the same time, plants selected from these crop and weed species and also wheat (Triticum aestivum), galium (catchweed bedstraw, Galium aparine) and horseweed (Erigeron canadensis) were planted in pots containing the same blend of loam soil and sand and treated with postemergence applications of test chemicals formulated in the same manner. Plants ranged in height from 2 to 10 cm and were in the one- to two-leaf stage for the postemergence treatment. Treated plants and untreated controls were maintained in a greenhouse for 10 days, after which time all treated plants were compared to untreated controls and visually evaluated for injury. Plant response ratings, summarized in Table A, are based on a 0 to 100 scale where 0 is no effect and 100 is complete control. A dash (-) response means no test result.

kochia (Bassia scoparia) [3] = assay: Test A preemergence, kochia; conditions: 0 to 100 scale, 10 days
Procedure, shortened: as §1

[4] = tested on: redroot pigweed (Amaranthus retroflexus); assay: Test A preemergence, redroot pigweed; conditions: 0 to 100 scale, 10 days
Procedure, shortened: as §1

[5] = tested on: ragweed (common ragweed, Ambrosia artemisiifolia); assay: Test A preemergence, ragweed; conditions: 0 to 100 scale, 10 days
Procedure, shortened: as §1

[6] = tested on: ryegrass, Italian (Italian ryegrass, Lolium multiflorum); assay: Test A preemergence, ryegrass, Italian; conditions: 0 to 100 scale, 10 days
Procedure, shortened: as §1

[7] = tested on: barnyardgrass (Echinochloa crus-galli); assay: Test A postemergence, barnyardgrass; conditions: Postemergence, 0 to 100 scale, 10 days
Procedure, shortened: as §1

[8] = tested on: blackgrass (Alopecurus myosuroides); assay: Test A postemergence, blackgrass; conditions: Postemergence, 0 to 100 scale, 10 days
Procedure, shortened: as §1

corn (Zea mays) = assay: Test A postemergence, corn; conditions: Postemergence, 0 to 100 scale, 10 days
Procedure, shortened: as §1

[9] = tested on: foxtail, green (green foxtail, Setaria viridis); assay: Test A postemergence, foxtail, green; conditions: 10 days
From the text: as §2, §3

kochia (Bassia scoparia) [10] = assay: Test A postemergence, kochia; conditions: 10 days
Procedure, shortened: as §1

[11] = tested on: redroot pigweed (Amaranthus retroflexus); assay: Test A postemergence, redroot pigweed; conditions: 10 days
Procedure, shortened: as §1

[12] = tested on: ragweed (common ragweed, Ambrosia artemisiifolia); assay: Test A postemergence, ragweed; conditions: 10 days
Procedure, shortened: as §1

[13] = tested on: ryegrass, Italian (Italian ryegrass, Lolium multiflorum); assay: Test A postemergence, ryegrass, Italian; conditions: 10 days
Procedure, shortened: as §1

[14] = tested on: wheat (Triticum aestivum); assay: Test A postemergence, wheat; conditions: 10 days
Procedure, shortened: as §1

[15] = tested on: galium (catchweed bedstraw, Galium aparine); assay: Test A postemergence, galium; conditions: 10 days
Procedure, shortened: as §1

[16] = tested on: barnyardgrass (Echinochloa crus-galli); assay: Test B flooded paddy test, barnyardgrass; conditions: 250 g ai/ha, Flood; visually evaluated after 10 to 14 days
Procedure, shortened: (§4)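 Plants grown to the 2-leaf stage were flooded to 3 cm above the soil, and test compounds were applied directly into the paddy water, which was held at that depth throughout. After 10 to 14 days in a greenhouse, injury was visually rated against controls on a 0–100 scale (0 no effect, 100 complete control).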

[17] = tested on: ducksalad (Heteranthera limosa); assay: Test B flooded paddy test, ducksalad; conditions: 250 g ai/ha, Flood; visually evaluated after 10 to 14 days
Procedure, shortened: as §4

rice (Oryza sativa) = assay: Test B flooded paddy test, rice; conditions: 250 g ai/ha, Flood; visually evaluated after 10 to 14 days
Procedure, shortened: as §4

[18] = tested on: sedge, umbrella (small-flower umbrella sedge, Cyperus difformis); assay: Test B flooded paddy test, sedge, umbrella; conditions: 250 g ai/ha, Flood; visually evaluated after 10 to 14 days
Procedure, shortened: as §4

[19] = 125 g ai/ha, 0 to 100 scale (0 no effect, 100 complete control)
[20] = 31 g ai/ha, postemergence, 0 to 100 scale (0 no effect, 100 complete control)
[21] = Postemergence, 125 g ai/ha, 0 to 100 scale

SMILES	Plant response rating, Barnyardgrass ([1]; 31 g ai/ha, 0 to 100 scale)	Plant response rating, Barnyardgrass [1, 19]	Plant response rating, Foxtail, Green ([2]; 31 g ai/ha)	Plant response rating, Foxtail, Green ([2]; 125 g ai/ha)	Plant response rating, Kochia (kochia (Bassia scoparia) [3]; 31 g ai/ha)	Plant response rating, Kochia (kochia (Bassia scoparia) [3]; 125 g ai/ha)	Plant response rating, Pigweed, Redroot ([4]; 31 g ai/ha)	Plant response rating, Pigweed, Redroot ([4]; 125 g ai/ha)	Plant response rating, Ragweed ([5]; 31 g ai/ha)	Plant response rating, Ragweed ([5]; 125 g ai/ha)	Plant response rating, Ryegrass, Italian ([6]; 31 g ai/ha)	Plant response rating, Ryegrass, Italian ([6]; 125 g ai/ha)	Plant response rating, Barnyardgrass ([7]; 31 g ai/ha)	Plant response rating, Barnyardgrass ([7]; 125 g ai/ha)	Plant response rating, Blackgrass ([8]; 31 g ai/ha)	Plant response rating, Blackgrass ([8]; 125 g ai/ha)	Plant response rating, Corn (corn (Zea mays); 31 g ai/ha)	Plant response rating, Corn (corn (Zea mays); 125 g ai/ha)	Plant response rating, Foxtail, Green [9, 20]	Plant response rating, Foxtail, Green [9, 21]	other results
Cc1ccc2ccc(F)cc2c1-c1c(OCOC(=O)C(C)(C)C)c(Cl)nn(C)c1=O [Compound 4]	10	100	70	100	20	100	100	100	100	100	90	100	20	60	20	70	0	0	40	80	Plant response rating, Kochia (kochia (Bassia scoparia) [10]; [20]): 10; Plant response rating, Kochia (kochia (Bassia scoparia) [10]; [21]): 40; Plant response rating, Pigweed, Redroot [11, 20]: 70; Plant response rating, Pigweed, Redroot [11, 21]: 100; Plant response rating, Ragweed [12, 20]: 50; Plant response rating, Ragweed [12, 21]: 100; Plant response rating, Ryegrass, Italian [13, 20]: 50; Plant response rating, Ryegrass, Italian [13, 21]: 90; Plant response rating, Wheat [14, 20]: 40; Plant response rating, Wheat [14, 21]: 70; Plant response rating, Galium [15, 20]: 70; Plant response rating, Galium [15, 21]: 100; Plant response rating, Barnyardgrass (0 to 100 scale where 0 is no effect and 100 is complete control) [16]: 75; Plant response rating, Ducksalad (0 to 100 scale where 0 is no effect and 100 is complete control) [17]: 95; Plant response rating, Rice (0 to 100 scale where 0 is no effect and 100 is complete control) (rice (Oryza sativa)): 35; Plant response rating, Sedge, Umbrella (0 to 100 scale where 0 is no effect and 100 is complete control) [18]: 95
Cc1ccc2ccccc2c1-c1c(OCOC(=O)C(C)C)c(Cl)nn(C)c1=O [Compound 6]	0	0	0	50	10	50	90	100	10	80	20	70	20	50	0	40	0	0	0	60	Plant response rating, Kochia (kochia (Bassia scoparia) [10]; [20]): 10; Plant response rating, Kochia (kochia (Bassia scoparia) [10]; [21]): 60; Plant response rating, Pigweed, Redroot [11, 20]: 60; Plant response rating, Pigweed, Redroot [11, 21]: 100; Plant response rating, Ragweed [12, 20]: 70; Plant response rating, Ragweed [12, 21]: 80; Plant response rating, Ryegrass, Italian [13, 20]: 50; Plant response rating, Ryegrass, Italian [13, 21]: 70; Plant response rating, Wheat [14, 20]: 0; Plant response rating, Wheat [14, 21]: 10; Plant response rating, Galium [15, 20]: 70; Plant response rating, Galium [15, 21]: 90; Plant response rating, Barnyardgrass (0 to 100 scale where 0 is no effect and 100 is complete control) [16]: 10; Plant response rating, Ducksalad (0 to 100 scale where 0 is no effect and 100 is complete control) [17]: 70; Plant response rating, Rice (0 to 100 scale where 0 is no effect and 100 is complete control) (rice (Oryza sativa)): 0; Plant response rating, Sedge, Umbrella (0 to 100 scale where 0 is no effect and 100 is complete control) [18]: 75
Cc1ccc2ccccc2c1-c1c(OCOC(=O)C(C)(C)C)c(Cl)nn(C)c1=O [Compound 7]	50	90	60	100	10	70	100	100	50	90	50	90	10	80	0	30	10	10	10	70	Plant response rating, Kochia (kochia (Bassia scoparia) [10]; [20]): 30; Plant response rating, Kochia (kochia (Bassia scoparia) [10]; [21]): 70; Plant response rating, Pigweed, Redroot [11, 20]: 80; Plant response rating, Pigweed, Redroot [11, 21]: 90; Plant response rating, Ragweed [12, 20]: 70; Plant response rating, Ragweed [12, 21]: 90; Plant response rating, Ryegrass, Italian [13, 20]: 50; Plant response rating, Ryegrass, Italian [13, 21]: 70; Plant response rating, Wheat [14, 20]: 0; Plant response rating, Wheat [14, 21]: 50; Plant response rating, Galium [15, 20]: 70; Plant response rating, Galium [15, 21]: 90; Plant response rating, Barnyardgrass (0 to 100 scale where 0 is no effect and 100 is complete control) [16]: 0; Plant response rating, Ducksalad (0 to 100 scale where 0 is no effect and 100 is complete control) [17]: 0; Plant response rating, Rice (0 to 100 scale where 0 is no effect and 100 is complete control) (rice (Oryza sativa)): 0; Plant response rating, Sedge, Umbrella (0 to 100 scale where 0 is no effect and 100 is complete control) [18]: 0
